Data reported in a melting point compilation (Tetko et al.).

melting point [°C] | SMILES
70 to 72 | O=[N+]([O-])c1cc(Cl)ccc1NC1CC1
33 to 35 | CCC(CC)CS(N)(=O)=O
119 to 121 | Nc1cccc2c1CN(c1nccs1)C2
133 to 135 | O=C(O)c1coc(Br)c1
129 to 131 | CCS(=O)(=O)Nc1ccc(N)cc1OC
137 to 139 | Nc1ccc(-n2ccnn2)cc1
110 to 112 | CC(C)(C)OC(=O)NC1CC2CCCC(C1)C2N (centres undefined)
174 to 176 | CC(C)(C)n1ccnc1SCC(=O)O
94 to 96 | CCC1(C(=O)O)CCN(C(=O)OC(C)(C)C)C1 (centres undefined)
87 to 89 | N#CCc1coc(-c2ccccc2)n1
138 to 140 | N#Cc1ccc(N2C(=O)C=CC2=O)cc1
69 to 73 | COc1ccc(C(=O)c2ccc(OC)cc2OC)cc1
95 to 97 | CCOC1CCN(C(=O)Nc2cccc(C(C)=O)c2)CC1
59 to 61 | O=C(NCc1cccc(Cl)c1)c1ccc(F)cc1
87 to 89 | CC(=O)c1ccc(C(F)(F)F)[nH]c1=O
143 to 145 | CNC(=O)COc1ccc(CC(=O)O)cc1
189 to 191 | N#Cc1cnc(-c2ccccc2)nc1
193 to 195 | COC(=O)c1ccc2[nH]ncc2c1
202 to 204 | O=C(O)c1nn(-c2ccc(F)cc2)c2c1CCC2
150 to 152 | Cc1ccc(NS(=O)(=O)c2ccc(N)cc2)cc1C
169 to 171 | O=C(O)c1ccc(Oc2cccc(F)c2[N+](=O)[O-])c(Cl)c1
167 to 169 | Cc1c(Br)cc(S(=O)(=O)Cl)cc1C(=O)O
75 to 77 | Nc1cc([N+](=O)[O-])ccc1OC(F)F
169 to 171 | Cc1c(C(=O)O)cccc1S(=O)(=O)Cl

melting point [°C] | SMILES
113 to 115 | Nc1ccc2oc(CO)nc2c1
243 to 245 | NC(=S)/C(=C/c1ccccc1O)C(=O)O
149 to 151 | CC(=O)c1ccc(S(=O)(=O)NCc2ccc(F)cc2)cc1
108 to 110 | O=C(O)CCCNC(=O)c1ccc(Cl)cc1
78 to 80 | CCCc1c(C(=O)O)nnn1-c1cccc(C(C)C)c1
139 to 141 | O=C(O)Cc1cccc(OCc2cccnc2)c1
112 to 114 | Cc1csc(Sc2ccc(N)cc2Cl)n1
148 to 150 | CCc1c(C)nc2ccccc2c1N
148 to 150 | O=C(O)CCSCC(=O)Nc1ccc(Br)cc1
198 to 200 | Nc1ccc(-c2noc(=O)[nH]2)cc1
190 to 192 | Cc1ccc(S(=O)(=O)N2CCC(C(=O)O)CC2)cc1C
147 to 149 | CNC(=O)c1ccc(N)cc1Cl
146 to 148 | CC(=O)Nc1cccs1
44 to 46 | CCc1nc(COc2ccc(C(=O)OC)cc2)no1
94 to 96 | O=S(=O)(NC1CC1)c1ccc(Cl)nc1
158 to 160 | Cc1cccc(C=C(C(=O)O)c2cccs2)c1
109 to 112 | O=C(c1ccccc1)c1ccc(CBr)cc1
88 to 90 | CN(C(=O)CC#N)C1CCCCC1
82 to 84 | O=C(CCl)NC1CCCCCCC1
66 to 68 | NC(=NO)c1ccsc1
151 to 153 | COc1ccc2nc(CCl)[nH]c2n1
219 to 221 | Nc1ccc(Cl)nc1C(=O)O
159 to 161 | Nc1ccc(C(=O)NCc2ccccn2)c(Cl)c1
62 to 64 | N#CCC(=O)c1ccc(Cl)cc1Cl

melting point [°C] | SMILES
139 to 141 | NS(=O)(=O)c1ccc(F)c(C(=O)O)c1F
140 to 142 | Cc1nn(C)c(C)c1C(O)C(F)(F)F (centres undefined)
166 to 168 | CC(=O)Nc1ccc(N)nc1
158 to 160 | COc1ccc(C)cc1-n1ccc(C(=O)O)n1
182 to 184 | COc1cc(C(=O)O)ccc1OCc1cnn(C)c1
109 to 111 | CC(C)(C)NS(=O)(=O)c1cc(N)c(F)cc1F
188 to 190 | Clc1ccc(-c2cc3ncnc(Cl)c3s2)cc1
97 to 99 | O=C(O)CCc1ccc(Br)cc1F
103 to 105 | CS(=O)(=O)CC(O)c1ccccc1 (centres undefined)
102 to 104 | Nc1cc(N2CCCS2(=O)=O)ccc1F
146 to 148 | Nc1cc(C(=O)O)ccc1Oc1ccccc1
120 to 122 | O=Cc1cnn(-c2ccc(F)cc2)c1
230 to 232 | Cc1ccccc1Nc1nnc(S)s1
99 to 101 | CC(=O)c1ccc(S(=O)(=O)N(C)C)cc1
32 to 34 | COc1ccc(I)cc1F
285 to 287 | N#CC(C(=O)CCl)=C1Nc2ccccc2N1
182 to 185 | COc1cc(/C=C/C(=O)O)cc2c1OCCO2
138 to 140 | O=C(O)C1Cc2ccccc2CN1S(=O)(=O)c1ccccc1 (centres undefined)
140 to 142 | CCCCOc1ccc(C(=O)O)cc1OCCCC
169 to 171 | COc1cc(Cl)ccc1S(N)(=O)=O
109 to 111 | CCCOc1ccc(CNC(=O)CCl)cc1
219 to 221 | NC(CC(=O)O)c1cnn(-c2ccccc2)c1 (centres undefined)
98 to 102 | CCN(CC)C(N)=S
41 to 43 | COC(=O)c1ccc(F)cc1S

melting point [°C] | SMILES
110 to 112 | Nc1cccc(S(=O)(=O)Nc2ccccc2Cl)c1
90 to 92 | O=C(O)C=C1CCCCC1
49 to 51 | O=S(=O)(Cl)C1CCCCC1O (centres undefined)
246 to 248 | O=C(O)Cc1ccc(NC(=O)c2cccc(Br)c2)cc1
44 to 46 | COC(=O)c1cc(S(=O)(=O)Cl)ccc1C
174 to 176 | CS(=O)(=O)Cc1nc(Cl)c(Br)c(Cl)n1
158 to 160 | O=C(O)COc1ccc2ccccc2c1Br
83 to 85 | CCC(C)Oc1ccccc1C=CC(=O)O (centres undefined)
67 to 69 | Nc1ccc(Oc2ccccc2)cn1
93 to 95 | CC(C)(C)NS(=O)(=O)CC(=O)O
231 to 233 | NC(=O)c1c(NC(=O)CCC(=O)O)sc2c1CCC2
83 to 85 | NC(=O)CCCC(=O)O
189 to 191 | COc1ccc(CCNc2nnc(S)s2)cc1OC
117 to 119 | NCCNc1ncnc2sccc12
159 to 161 | CCOC(=O)c1[nH]c2c(c1C)C(=O)CCC2
106 to 108 | O=C1c2ccncc2C(=O)N1CCO
144 to 146 | O=S1(=O)CC(S(=O)(=O)Cl)c2ccccc21 (centres undefined)
202 to 204 | Cc1nc2cc(Cl)ccc2c(=O)n1N
104 to 106 | Cc1ccc2c(c1)c(C=O)c(C)n2C
151 to 153 | Nc1ccc(N2CCCC2)c(S(=O)(=O)Nc2cccc(C(F)(F)F)c2)c1
160 to 162 | Cc1ccc(C(=O)NCC(=O)O)cc1C
54 to 56 | OCCNCc1ccc(Cl)c(Cl)c1
153 to 155 | Cc1nc(COc2cccc(C(=O)O)c2)cs1
69 to 71 | COC(=O)c1ccc(N)cc1C

melting point [°C] | SMILES
151 to 153 | COc1cccc(NC(=O)C=CC(=O)O)c1
85 to 87 | O=S1(=O)CCCN1c1cccc(Cl)c1
174 to 176 | NS(=O)(=O)c1ccc([N+](=O)[O-])nc1
48 to 50 | CCCCCC(C)CNC(=S)NN (centres undefined)
38 to 40 | NCCNC(=O)c1ccc(Br)cc1
57 to 59 | CC(c1ccccc1)c1ccc(O)cc1 (centres undefined)
208 to 210 | Cn1cc(-c2ccc(F)c(C(=O)O)c2)cn1
97 to 99 | O=C1CCC(c2ccccc2)N1 (centres undefined)
127 to 129 | O=C(O)CCCNc1ncccn1
92 to 94 | Nc1cccc(Oc2ncc(Br)cn2)c1
116 to 118 | Nn1c(S)nnc1C1CCOC1 (centres undefined)
109 to 111 | COC(=O)C(CO)NC(=O)C1CCCCC1 (centres undefined)
200 to 202 | O=C(O)CN1C(=O)COc2ccc([N+](=O)[O-])cc21
266 to 268 | O=c1[nH]ncc2c[nH]nc12
162 to 164 | O=C(O)c1nc(-c2cccs2)n(-c2cccc(F)c2)n1
186 to 188 | CC1Cc2ccccc2N1Cc1occc1C(=O)O (centres undefined)
113 to 115 | CS(=O)(=O)NCC(=O)c1ccccc1
250 to 252 | NC(=O)c1ccc(-c2csc(N)n2)cc1
126 to 128 | CS(=O)(=O)Nc1ccc(C(F)(F)F)cc1N
49 to 51 | CC(C)C(Br)C(=O)c1ccccc1 (centres undefined)
181 to 183 | O=S1(=O)N=C2CCCCCN2C(CCl)N1 (centres undefined)
81 to 83 | Cc1nn(-c2ccccc2)cc1N
134 to 136 | COc1ccc(-c2[nH]c3ccccc3c2CCC(=O)O)cc1
151 to 153 | c1ccc2[nH]c(C3CCCCN3)cc2c1 (centres undefined)

melting point [°C] | SMILES
168 to 170 | CCOc1ccc2cc(C(=O)O)[nH]c2c1
84 to 86 | CN1C(=O)C=C(Br)C1=O
171 to 173 | Cc1ccc2nc(CO)cc(=O)n2c1
117 to 119 | CC(=O)N(c1cccc(C)c1)c1nc(CCl)cs1
164 to 166 | Cc1cc(C)n(N)c(=O)c1C#N
44 to 46 | Cc1cc(F)ccc1CO
86 to 88 | COc1ccc(NC(=O)OCC(F)(F)F)cn1
150 to 152 | Cc1cccc(NC(=O)C(Br)C(C)C)c1C (centres undefined)
162 to 164 | Cc1ccc(C)c(NC(=S)NN)c1
55 to 57 | NCc1nnc2n1CC(C(F)(F)F)CC2 (centres undefined)
218 to 220 | CCOC(=O)c1c(C)nn2c(=O)cc(CCl)[nH]c12
86 to 88 | Cc1ccc(OCc2nc(C=O)cs2)cc1
144 to 146 | O=C1CNc2ccc(S(=O)(=O)N3CCCCC3)cc2N1
176 to 178 | NNC(=O)c1n[nH]c2c1CCCC2
124 to 126 | CC(C)C(Br)C(=O)Nc1ccc2c(c1)CCC2 (centres undefined)
288 to 290 | CCCCN1C(=O)CCC(C(=O)O)C1c1ccccc1OC (centres undefined)
207 to 209 | O=C1CCc2cc(Cl)c(S(=O)(=O)Cl)cc2N1
119 to 121 | Cc1cc(N)n(-c2ccc(C(F)(F)F)cn2)n1
130 to 132 | COc1ncccc1C(N)=O
63 to 65 | Cc1cc(N)nn1-c1ccccc1Cl

SMILES | melting point [°C]
CC(C)(C)OC(=O)N1CC2NCCOC2C1 (centres undefined) | 54 to 56
Nc1ccc(CCN2CCCCC2)cc1 | 54 to 56
N#Cc1cc(C(=O)C(Cl)(Cl)Cl)c[nH]1 | 129 to 131
CN1CCC(N(C)c2ccc(N)cc2)CC1 | 62 to 64
